We go through 15 molecules from patent US20230391748A1, “BICYCLIC INHIBITORS OF IRAK” (priority 2022, published 2023).

The target of test [1] is IRAK4 (Homo sapiens (Human), UniProt Q9NWZ3). The test is described as follows: IRAK4 ADP-Glo Assay. It is filed as biochemical. The conditions noted are these: MBP substrate. An outline of the steps: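 Human IRAK4 kinase reaction with MBP substrate plus ATP in Tris-HCl/MgCl2/BSA/DTT buffer, pH 7.4, run 60 min at room temperature or 30 min at 30 °C. ADP formed was measured by ADP-Glo luminescence after ATP depletion (40 min) and detection reagent (30 min).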
Sequence of IRAK4 (Q9NWZ3 whole entry): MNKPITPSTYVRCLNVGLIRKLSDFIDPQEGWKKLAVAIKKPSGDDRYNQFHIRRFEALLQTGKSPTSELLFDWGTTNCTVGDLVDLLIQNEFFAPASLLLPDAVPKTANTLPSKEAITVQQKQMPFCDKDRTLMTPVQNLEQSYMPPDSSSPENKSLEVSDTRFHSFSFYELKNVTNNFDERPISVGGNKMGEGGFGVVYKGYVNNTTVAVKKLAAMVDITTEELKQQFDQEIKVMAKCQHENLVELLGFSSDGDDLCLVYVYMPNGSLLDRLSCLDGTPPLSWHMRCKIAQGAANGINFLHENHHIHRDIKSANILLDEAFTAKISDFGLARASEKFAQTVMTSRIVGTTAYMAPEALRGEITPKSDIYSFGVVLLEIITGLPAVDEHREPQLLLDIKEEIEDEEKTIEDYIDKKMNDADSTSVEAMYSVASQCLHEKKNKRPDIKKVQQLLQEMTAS

Test [2] relates to TNF-α in human PBMCs. The test is described as follows: R848-induced TNF-α in human PBMCs Assay. It is filed as cell-based. The settings on record: Homo sapiens, PBMC, 4 h, read-out: TNFα (PBMC, R848) (IC50, μM). An outline of the steps:
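Human PBMCs at 200K/well were pretreated with compound, then R848-stimulated for 4 h at 37 °C, 5% CO2. Supernatant TNF-α quantified by chemiluminescent ELISA; EC50 from curve fitting.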

Test [3] has as its system TNF-α in Human Primary Monocyte-Derived Dendritic Cells. The test is described as follows: Gardiquimod-Induced TNF-α in Human Primary Monocyte-Derived Dendritic Cells. It is filed as cell-based. The conditions noted are these: Dendritic cell, IFNγ-primed monocyte-derived dendritic cells, 4 μg/ml Gardiquimod, 6 hours, TNF-α ELISA, read-out: TNFα (DC, GARD) (IC50). In outline:
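Monocytes differentiated 7 days with GM-CSF and IL-4, then primed 24 h with 50 ng/ml IFN-γ. Compound added 1 h before 6 h stimulation with 4 μg/ml Gardiquimod, 0.5% DMSO final. Supernatant TNF-α measured by chemiluminescent ELISA; EC50 from curve fitting.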

Test [4] has as its system IL23p19 in THP-1 Cells. The test is described as follows: LPS Induced IL23p19 in THP-1 Cells (with IFNγ Primed) Assay. The conditions noted are these: Homo sapiens, THP-1, 18 h, read-out: IL23 (THP, LPS) (IC50, μM). It is filed as cell-based. An outline of the steps: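 THP-1 cells (50K/well) primed with IFNγ (50 ng/mL) about 18 h, then given compound and stimulated with LPS for 18 h at 37 °C. Secreted IL-23p19 measured by sandwich ELISA with chemiluminescent read-out, giving EC50. Cell Titer Glo used on the remaining cells for toxicity.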

Take `CC(C)Oc1cc2c(O[C@@H]3CCCN(C(=O)CC#N)C3)ncc(C#C[C@H]3C[C@@H](N(C)C)C3)c2cc1C(N)=O` [Compound I-106, 1-(((R)-1-(2-cyanoacetyl)piperidin-3-yl)oxy)-4-((cis-3-(dimethylamino)cyclobutyl)ethynyl)-7-isopropoxyisoquinoline-6-carboxamide]: the IC50 came to 0.0032 µM in test [1], 0.363 µM in test [2], 0.0535 µM in test [3] and 0.436 µM in test [4].
For the molecule `CC(C)Oc1cc2c(O[C@@H]3CCCNC3)ncc(-c3cnn(C4CC4)c3)c2cc1C(N)=O` [Compound I-108, (R)-4-(1-cyclopropyl-1H-pyrazol-4-yl)-7-isopropoxy-1-(piperidin-3-yloxy)isoquinoline-6-carboxamide], the IC50 in test [1] came to 0.142 µM; in test [2], 5.5 µM; in test [3], 1.37 µM; in test [4] it was 10 µM.
In the same order, the values of `CC(C)Oc1cc2c(O[C@@H]3CCCNC3)ncc(-c3cnn(C4CCC4)c3)c2cc1C(N)=O` [Compound I-109, (R)-4-(1-cyclobutyl-1H-pyrazol-4-yl)-7-isopropoxy-1-(piperidin-3-yloxy)isoquinoline-6-carboxamide] are 0.171 µM, 2.55 µM, 1.44 µM and 34.9 µM.
The corresponding values for `CC(C)Oc1cc2c(O[C@@H]3CCCNC3)ncc(-c3cnn(C4CCCC4)c3)c2cc1C(N)=O` [Compound I-110, (R)-4-(1-cyclopentyl-1H-pyrazol-4-yl)-7-isopropoxy-1-(piperidin-3-yloxy)isoquinoline-6-carboxamide] are 0.123 µM, 2.44 µM, 1.79 µM and 24.7 µM.
The corresponding values for `CC(C)Oc1cc2c(O[C@@H]3CCCNC3)ncc(-c3cnn(C4CCOCC4)c3)c2cc1C(N)=O` [Compound I-111, (R)-7-isopropoxy-1-(piperidin-3-yloxy)-4-(1-(tetrahydro-2H-pyran-4-yl)-1H-pyrazol-4-yl)isoquinoline-6-carboxamide] are 1.44 µM, 3.46 µM, 2.27 µM and 15.5 µM.
Take `CC(C)Oc1cc2c(O[C@@H]3CCCNC3)ncc(-c3cnn(CC4CCOCC4)c3)c2cc1C(N)=O` [Compound I-112, (R)-7-isopropoxy-1-(piperidin-3-yloxy)-4-(1-((tetrahydro-2H-pyran-4-yl)methyl)-1H-pyrazol-4-yl)isoquinoline-6-carboxamide]: the IC50 worked out at 0.28 µM in test [1], 3.95 µM in test [2], 9.22 µM in test [3] and 13.6 µM in test [4].
The corresponding values for `CC(C)Oc1cc2c(O[C@@H]3CCCNC3)ncc(-c3cnn(CCC4CCOCC4)c3)c2cc1C(N)=O` [Compound I-113, (R)-7-isopropoxy-1-(piperidin-3-yloxy)-4-(1-(2-(tetrahydro-2H-pyran-4-yl)ethyl)-1H-pyrazol-4-yl)isoquinoline-6-carboxamide] are 0.364 µM, 0.677 µM, 0.853 µM and 8.82 µM.
The corresponding values for `CC(C)Oc1cc2c(O[C@@H]3CCCN(C(=O)CC#N)C3)ncc(-c3cnn(C4CC4)c3)c2cc1C(N)=O` [Compound I-114, (R)-1-((1-(2-cyanoacetyl)piperidin-3-yl)oxy)-4-(1-cyclopropyl-1H-pyrazol-4-yl)-7-isopropoxyisoquinoline-6-carboxamide] are 0.0123 µM, 0.549 µM, 0.659 µM and 1.42 µM.
The corresponding values for `CC(C)Oc1cc2c(O[C@@H]3CCCN(C(=O)CC#N)C3)ncc(-c3cnn(C4CCC4)c3)c2cc1C(N)=O` [Compound I-115, (R)-1-((1-(2-cyanoacetyl)piperidin-3-yl)oxy)-4-(1-cyclobutyl-1H-pyrazol-4-yl)-7-isopropoxyisoquinoline-6-carboxamide] are 0.0132 µM, 0.443 µM, 0.451 µM and 0.911 µM.
In the case of `CC(C)Oc1cc2c(O[C@@H]3CCCN(C(=O)CC#N)C3)ncc(-c3cnn(C4CCCC4)c3)c2cc1C(N)=O` [Compound I-116, (R)-1-((1-(2-cyanoacetyl)piperidin-3-yl)oxy)-4-(1-cyclopentyl-1H-pyrazol-4-yl)-7-isopropoxyisoquinoline-6-carboxamide], the IC50 in test [1] was 0.0077 µM; in test [2] it was 0.271 µM; in test [3], 0.219 µM; in test [4], 1.37 µM.
For the molecule `CC(C)Oc1cc2c(O[C@@H]3CCCN(C(=O)CC#N)C3)ncc(-c3cnn(C4CCOCC4)c3)c2cc1C(N)=O` [Compound I-117, (R)-1-((1-(2-cyanoacetyl)piperidin-3-yl)oxy)-7-isopropoxy-4-(1-(tetrahydro-2H-pyran-4-yl)-1H-pyrazol-4-yl)isoquinoline-6-carboxamide], the IC50 in test [1] came to 0.0253 µM; in test [2] it was 7.24 µM; in test [3] it was 1.03 µM; in test [4] it was 3.91 µM.
The corresponding values for `CC(C)Oc1cc2c(O[C@@H]3CCCN(C(=O)CC#N)C3)ncc(-c3cnn(CC4CCOCC4)c3)c2cc1C(N)=O` [Compound I-118, (R)-1-((1-(2-cyanoacetyl)piperidin-3-yl)oxy)-7-isopropoxy-4-(1-((tetrahydro-2H-pyran-4-yl)methyl)-1H-pyrazol-4-yl)isoquinoline-6-carboxamide] are 0.0204 µM, 6.5 µM, 1.5 µM and 4.2 µM.
The corresponding values for `CC(C)Oc1cc2c(O[C@@H]3CCCN(C(=O)CC#N)C3)ncc(-c3cnn(CCC4CCOCC4)c3)c2cc1C(N)=O` [Compound I-119, (R)-1-((1-(2-cyanoacetyl)piperidin-3-yl)oxy)-7-isopropoxy-4-(1-(2-(tetrahydro-2H-pyran-4-yl)ethyl)-1H-pyrazol-4-yl)isoquinoline-6-carboxamide] are 0.0184 µM, 2.51 µM, 1.02 µM and 2.22 µM.
The corresponding values for `CC(C)Oc1cc2c(O[C@@H]3CCCN(C(=O)CC#N)C3)ncc(-c3cnn([C@H]4C[C@@H](N(C)C)C4)c3)c2cc1C(N)=O` [Compound I-120, 1-(((R)-1-(2-cyanoacetyl)piperidin-3-yl)oxy)-4-(1-(cis-3-(dimethylamino)cyclobutyl)-1H-pyrazol-4-yl)-7-isopropoxyisoquinoline-6-carboxamide] are 0.0084 µM, 0.227 µM, 0.423 µM and 2.83 µM.
On to `CC(C)Oc1cc2c(O[C@@H]3CCCN(C(=O)CC#N)C3)ncc(-c3cnn(C4CCN(C(=O)OC(C)(C)C)CC4)c3)c2cc1C(N)=O` [Compound I-121, tert-butyl (R)-4-(4-(6-carbamoyl-1-((1-(2-cyanoacetyl)piperidin-3-yl)oxy)-7-isopropoxyisoquinolin-4-yl)-1H-pyrazol-1-yl)piperidine-1-carboxylate], for which the IC50 in test [1] stood at 0.0129 µM; in test [2], 1.76 µM; in test [3], 1.02 µM; in test [4], 1.9 µM.
